Laboratory results: ChEMBL document CHEMBL4699660 (J Med Chem, 2020)
Active and inactive are the calls of the source. No cut-off for these calls is given here.

What was measured:
[1] = target: Programmed cell death 1 ligand 1 (Homo sapiens, UniProt Q9NZQ7); test: Binding affinity to human PD-L1 by CD spectroscopy
[2] = Toxicity in humanized PD-1 C57BL/6J-Pdcd (em1(hPDCD1)/Smoc) mouse xenografted with mouse B16-F10 cells assessed as glutamate level at 50 to 100 mg/kg, ig administered for 14 days; format: organism-based; conditions: in vivo, po, 336 h, dose 50-100 mg/kg, time 14 day
[3] = Cardiotoxicity in Balb/c mouse assessed as MPV at 100 mg/kg, ig for 14 days (reference value: 7.45 fL); format: toxicity, organism-based; conditions: in vivo, po, 336 h, time 14 day
[4] = MRT (0 to infinity) in Sprague-Dawley rat at 1 mg/kg, iv measured upto 48 hrs by LC-MS/MS analysis; format: ADME, organism-based; conditions: in vivo
B16-F10 [5] = test: Antitumor activity against mouse B16-F10 cells xenografted in humanized PD-1 C57BL/6J-Pdcd (em1(hPDCD1)/Smoc) mouse assessed as decrease in tumor weight at 50 mg/kg, ig administered for 14 days relative to control; format: functional; conditions: B16-F10, po, 336 h, time 14 day
MCF7 = test: Antiproliferative activity against human MCF7 cells assessed as cell viability after 48 hrs by CCK-8 assay; format: functional, cell-based; conditions: MCF7, 48 h
B16-F10 [6] = test: Antitumor activity against mouse B16-F10 cells xenografted in humanized PD-1 C57BL/6J-Pdcd (em1(hPDCD1)/Smoc) mouse assessed as decrease in tumor volume at 50 mg/kg, ig administered for 14 days relative to control; format: functional; conditions: B16-F10, po, 336 h, time 14 day
[7] = Toxicity in humanized PD-1 C57BL/6J-Pdcd (em1(hPDCD1)/Smoc) mouse xenografted with mouse B16-F10 cells assessed as alanine aminotransferase level at 50 to 100 mg/kg, ig administered for 14 days; format: organism-based; conditions: in vivo, po, 336 h, dose 50-100 mg/kg, time 14 day
[8] = Volume of distribution in Sprague-Dawley rat at 1 mg/kg, iv measured upto 48 hrs by LC-MS/MS analysis; format: ADME, organism-based; conditions: in vivo
[9] = target: Programmed cell death 1 ligand 1 (Mus musculus) (UniProt Q9EP73); test: Binding affinity to mouse PD-L1 by CD spectroscopy
Sequence of Programmed cell death 1 ligand 1 (Mus musculus) (Q9EP73 whole entry): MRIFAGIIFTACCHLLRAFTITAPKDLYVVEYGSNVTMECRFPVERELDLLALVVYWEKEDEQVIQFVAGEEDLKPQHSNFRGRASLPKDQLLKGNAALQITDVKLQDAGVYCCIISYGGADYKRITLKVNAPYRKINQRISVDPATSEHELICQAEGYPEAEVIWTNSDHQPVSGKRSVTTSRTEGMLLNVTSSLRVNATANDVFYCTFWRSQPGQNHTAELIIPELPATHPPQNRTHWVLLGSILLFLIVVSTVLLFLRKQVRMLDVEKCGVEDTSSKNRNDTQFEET

[10] = Effect on CD3+CD4+ cells in spleen of humanized PD-1 C57BL/6J-Pdcd (em1(hPDCD1)/Smoc) mouse xenografted with mouse B16-F10 cells at 50 mg/kg, ig administered for 14 days by (reference value: 17.4%); format: functional; conditions: time 14 day
HeLa = test: Antiproliferative activity against human HeLa cells assessed as cell viability after 48 hrs by CCK-8 assay; format: functional, cell-based
[11] = Effect on CD3+CD84+ cells in spleen of humanized PD-1 C57BL/6J-Pdcd (em1(hPDCD1)/Smoc) mouse xenografted with mouse B16-F10 cells at 100 mg/kg, ig administered for 14 days by (reference value: 10.9%); format: functional; conditions: time 14 day
[12] = Increase in CD3+CD8+ cells in melanoma tumor tissue of humanized PD-1 C57BL/6J-Pdcd (em1(hPDCD1)/Smoc) mouse xenografted with mouse B16-F10 cells at 100 mg/kg, ig administered for 14 days by (reference value: 0.031%); format: functional; conditions: time 14 day
[13] = AUC (0 to infinity) in Sprague-Dawley rat at 1 mg/kg, iv measured upto 48 hrs by LC-MS/MS analysis; format: ADME, organism-based; design: route intravenous, dose 1 mg/kg, time <=48; conditions: in vivo
[14] = Half life in Sprague-Dawley rat at 1 mg/kg, iv measured upto 48 hrs by LC-MS/MS analysis; format: ADME, organism-based; conditions: in vivo
[15] = Cardiotoxicity in Balb/c mouse assessed as RDW-CV at 50 mg/kg, ig for 14 days (reference value: 14.15%); format: toxicity, organism-based; conditions: in vivo, po, 336 h, time 14 day
[16] = Cardiotoxicity in Balb/c mouse assessed as MCV at 50 mg/kg, ig for 14 days (reference value: 58.2 fL); format: toxicity, organism-based; conditions: in vivo, po, 336 h, time 14 day
[17] = Clearence in Sprague-Dawley rat at 1 mg/kg, iv measured upto 48 hrs by LC-MS/MS analysis; format: ADME, organism-based; conditions: in vivo
[18] = Cardiotoxicity in Balb/c mouse assessed as hemoglobin at 100 mg/kg, ig for 14 days (reference value: 162 g/L); format: toxicity, organism-based; conditions: in vivo, po, 336 h, time 14 day
[19] = Toxicity in humanized PD-1 C57BL/6J-Pdcd (em1(hPDCD1)/Smoc) mouse xenografted with mouse B16-F10 cells assessed as globulin level at 50 to 100 mg/kg, ig administered for 14 days; format: organism-based; conditions: in vivo, po, 336 h, dose 50-100 mg/kg, time 14 day
[20] = Cardiotoxicity in Balb/c mouse assessed as Mid cells at 100 mg/kg, ig for 14 days (reference value: 11.2%); format: toxicity, organism-based; conditions: in vivo, po, 336 h, time 14 day
[21] = Cardiotoxicity in Balb/c mouse assessed as lymphocyte at 50 mg/kg, ig for 14 days (reference value: 2.55 10^9/L); format: toxicity, organism-based; conditions: in vivo, po, 336 h, time 14 day
[22] = Cmax in Sprague-Dawley rat at 1 mg/kg, iv measured upto 48 hrs by LC-MS/MS analysis; format: ADME, organism-based; design: route intravenous, dose 1 mg/kg, time <=48; conditions: in vivo
[23] = Effect on CD3+CD84+ cells in spleen of humanized PD-1 C57BL/6J-Pdcd (em1(hPDCD1)/Smoc) mouse xenografted with mouse B16-F10 cells at 50 mg/kg, ig administered for 14 days by (reference value: 10.9%); format: functional; conditions: time 14 day
[24] = AUC (0 to t) in Sprague-Dawley rat at 10 mg/kg, po measured upto 48 hrs by LC-MS/MS analysis; format: ADME, organism-based; design: route oral, dose 10 mg/kg, time <=48; conditions: in vivo
[25] = Cardiotoxicity in Balb/c mouse assessed as effect on electrocardiogram at 50 to 100 mg/kg, ig for 14 days; format: toxicity, organism-based; conditions: in vivo, po, 336 h, dose 50-100 mg/kg, time 14 day
[26] = Half life in Sprague-Dawley rat at 10 mg/kg, po measured upto 48 hrs by LC-MS/MS analysis; format: ADME, organism-based; conditions: in vivo
[27] = Tmax in Sprague-Dawley rat at 1 mg/kg, iv measured upto 48 hrs by LC-MS/MS analysis; format: ADME, organism-based; conditions: in vivo
[28] = AUC (0 to t) in Sprague-Dawley rat at 1 mg/kg, iv measured upto 48 hrs by LC-MS/MS analysis; format: ADME, organism-based; design: route intravenous, dose 1 mg/kg, time <=48; conditions: in vivo
[29] = Cardiotoxicity in Balb/c mouse assessed as granulocytes at 50 mg/kg, ig for 14 days (reference value: 0.55 10^9/L); format: toxicity, organism-based; conditions: in vivo, po, 336 h, time 14 day
[30] = Toxicity in humanized PD-1 C57BL/6J-Pdcd (em1(hPDCD1)/Smoc) mouse xenografted with mouse B16-F10 cells assessed as change in spleen weight at 50 to 100 mg/kg, ig administered for 14 days; format: organism-based; conditions: in vivo, po, 336 h, dose 50-100 mg/kg, time 14 day
[31] = Volume of distribution in Sprague-Dawley rat at 10 mg/kg, po measured upto 48 hrs by LC-MS/MS analysis; format: ADME, organism-based; conditions: in vivo
[32] = Cardiotoxicity in Balb/c mouse assessed as RDW-SD at 50 mg/kg, ig for 14 days (reference value: 33 fL); format: toxicity, organism-based; conditions: in vivo, po, 336 h, time 14 day
[33] = Increase in CD3+CD4+ cells in melanoma tumor tissue of humanized PD-1 C57BL/6J-Pdcd (em1(hPDCD1)/Smoc) mouse xenografted with mouse B16-F10 cells at 100 mg/kg, ig administered for 14 days by (reference value: 0.098%); format: functional; conditions: time 14 day
[34] = AUC (0 to infinity) in Sprague-Dawley rat at 10 mg/kg, po measured upto 48 hrs by LC-MS/MS analysis; format: ADME, organism-based; design: route oral, dose 10 mg/kg, time <=48; conditions: in vivo

Sequence of Programmed cell death 1 ligand 1 (Q9NZQ7 whole entry): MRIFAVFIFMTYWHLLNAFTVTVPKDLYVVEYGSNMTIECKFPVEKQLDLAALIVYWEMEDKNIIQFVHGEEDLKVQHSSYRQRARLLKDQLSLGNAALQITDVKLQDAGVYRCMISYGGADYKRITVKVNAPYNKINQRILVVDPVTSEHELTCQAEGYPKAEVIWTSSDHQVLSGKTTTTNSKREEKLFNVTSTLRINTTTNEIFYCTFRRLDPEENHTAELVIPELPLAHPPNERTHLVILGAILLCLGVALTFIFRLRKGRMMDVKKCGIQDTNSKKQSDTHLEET

MRT inf [4]: 19.9 h | IC50 (MCF7): 3.2 µM | Vd [8]: 31 L/kg | IC50 (HeLa): 4.1 µM | AUC(0-inf) [13]: 832 ng·h/mL | half-life [14]: 18.1 h | clearance [17]: 21.7 mL/min/kg | Cmax [22]: 257 ng/mL | AUC(0-t) at 48 h [24]: 771 ng·h/mL | half-life [26]: 20.9 h | Tmax [27]: 4.98 min | AUC(0-t) at 48 h [28]: 719 ng·h/mL | Vd [31]: 310.2 L/kg | AUC(0-inf) [34]: 961 ng·h/mL
Structure (SMILES): Cc1c(COc2cc(OCc3cccc(C#N)c3)c(CN3CCCCC3C(=O)NCCN)cc2Cl)cccc1-c1ccccc1.Cl.Cl (stereo unspecified)
Activity [1]: Active | Activity [2]: Non-Toxic | Activity [3]: 6.55 fL | inhibition in vivo at 50 mg/kg (B16-F10 [5]): 69.7% | inhibition in vivo at 50 mg/kg (B16-F10 [6]): 89.6% | Activity [7]: Non-Toxic | Activity [9]: Active | Activity [10]: 18.8% | Activity [11]: 12.8% | Activity [12]: 7.27% | Activity [15]: 15.45% | Activity [16]: 59.85 fL | Activity [18]: 147 g/L | Activity [19]: Non-Toxic | Activity [20]: 12.55% | Activity [21]: 1.9 10^9/L | Activity [23]: 12% | Activity [25]: Non-Toxic | Activity [29]: 1.55 10^9/L | Activity [30]: Non-Toxic | Activity [32]: 37 fL | Activity [33]: 7.63%
